Reference: the supplement of paper PMC10307832

Assays:
Assay in all cases: relative viability (nuclei count vs DMSO), 5 days (fraction); higher = more cells survive
[1] = test system: HCC-44
Summary of the method: (§1)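 Lung cancer cell lines were pin-tool dosed in 1536-well plates on the day after seeding, with either a lone drug or a fixed anchor-drug dose plus five library-drug doses (not always all listed) in √10 steps. Nuclei were counted on 4× images after 5 days. Relative viability is the ratio of treated-well to vehicle-well nuclei counts, with each value a median of duplicate plates.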

[2] = test system: NCI-H1648
Summary of the method: as §1

[3] = test system: NCI-H1395
Summary of the method: as §1

[4] = test system: IA-LM
Summary of the method: as §1

[5] = test system: EKVX
Summary of the method: as §1

[6] = test system: NCI-H1755
Summary of the method: as §1

[7] = test system: LCLC-103H
Summary of the method: as §1

[8] = test system: UMC-11
Summary of the method: as §1

[9] = test system: HCC-15
Summary of the method: as §1

[10] = test system: NCI-H1703
Summary of the method: as §1

`CC(=O)O[C@@]12CO[C@@H]1C[C@H](O)[C@@]1(C)C(=O)[C@H](O)C3=C(C)[C@@H](OC(=O)[C@H](O)[C@@H](NC(=O)OC(C)(C)C)c4ccccc4)C[C@@](O)([C@@H](OC(=O)c4ccccc4)[C@H]21)C3(C)C` [Docetaxel] + O=C(CCCCCCC(=O)Nc1ccccc1)NO [Vorinostat] (partner 1 µM) showed a relative viability ([1]; first compound 0.0002 µM) of 0.994, a relative viability ([1]; first compound 0.000632 µM) of 1.14 and a relative viability ([1]; first compound 0.002 µM) of 0.861. For the same compound, the relative viability ([1]; first compound 0.006325 µM) was 0.515, the relative viability ([1]; first compound 0.02 µM) was 0.493 and the relative viability ([2]; first compound 0.0002 µM) was 0.487. For the same compound, the relative viability ([2]; first compound 0.000632 µM) was 0.378, the relative viability ([2]; first compound 0.002 µM) was 0.255 and the relative viability ([2]; first compound 0.006325 µM) was 0.301. For the same compound, the relative viability ([2]; first compound 0.02 µM) was 0.155, the relative viability ([3]; first compound 0.0002 µM) was 0.672 and the relative viability ([3]; first compound 0.000632 µM) was 0.601. For the same compound, the relative viability ([3]; first compound 0.002 µM) was 0.462, the relative viability ([3]; first compound 0.006325 µM) was 0.375 and the relative viability ([3]; first compound 0.02 µM) was 0.239. For the same compound, the relative viability ([4]; first compound 0.0002 µM) was 0.723, the relative viability ([4]; first compound 0.000632 µM) was 0.328 and the relative viability ([4]; first compound 0.002 µM) was 0.145. The relative viability ([4]; first compound 0.006325 µM) was 0.0958, the relative viability ([4]; first compound 0.02 µM) was 0.0566 and the relative viability ([5]; first compound 0.0002 µM) was 0.638. It also gave a relative viability ([5]; first compound 0.000632 µM) of 0.6, a relative viability ([5]; first compound 0.002 µM) of 0.428 and a relative viability ([5]; first compound 0.006325 µM) of 0.29. The relative viability ([5]; first compound 0.02 µM) was 0.229, the relative viability ([6]; first compound 0.0002 µM) was 0.791 and the relative viability ([6]; first compound 0.000632 µM) was 0.728. For the same compound, the relative viability ([6]; first compound 0.002 µM) was 0.433, the relative viability ([6]; first compound 0.006325 µM) was 0.479 and the relative viability ([6]; first compound 0.02 µM) was 0.373. The relative viability ([7]; first compound 0.0002 µM) was 0.703, the relative viability ([7]; first compound 0.000632 µM) was 0.695 and the relative viability ([7]; first compound 0.002 µM) was 0.513. For the same compound, the relative viability ([7]; first compound 0.006325 µM) was 0.604, the relative viability ([7]; first compound 0.02 µM) was 0.47 and the relative viability ([8]; first compound 0.0002 µM) was 0.402. The relative viability ([8]; first compound 0.000632 µM) was 0.287, the relative viability ([8]; first compound 0.002 µM) was 0.155 and the relative viability ([8]; first compound 0.006325 µM) was 0.203. For the same compound, the relative viability ([8]; first compound 0.02 µM) was 0.108, the relative viability ([9]; first compound 0.0002 µM) was 0.856 and the relative viability ([9]; first compound 0.000632 µM) was 0.574. It also gave a relative viability ([9]; first compound 0.006325 µM) of 0.227 and a relative viability ([9]; first compound 0.02 µM) of 0.131.

In the case of `Cc1sc2c(c1C)C(c1ccc(Cl)cc1)=N[C@@H](CC(=O)OC(C)(C)C)c1nnc(C)n1-2` [JQ1] + NC(=O)Nc1cc(-c2cccc(F)c2)sc1C(=O)N[C@H]1CCCNC1 [AZD7762] (partner 0.2 µM), the relative viability ([1]; first compound 0.04 µM) is reported as 0.987, the relative viability ([1]; first compound 0.1265 µM) is reported as 1.14 and the relative viability ([1]; first compound 0.4 µM) is reported as 1.06. It also gave a relative viability ([1]; first compound 1.265 µM) of 1.09, a relative viability ([1]; first compound 4 µM) of 0.76 and a relative viability ([2]; first compound 0.04 µM) of 0.862. The relative viability ([2]; first compound 0.1265 µM) was 0.906, the relative viability ([2]; first compound 0.4 µM) was 0.579 and the relative viability ([2]; first compound 1.265 µM) was 0.376. The relative viability ([2]; first compound 4 µM) was 0.388, the relative viability ([3]; first compound 0.04 µM) was 0.384 and the relative viability ([3]; first compound 0.1265 µM) was 0.379. It also gave a relative viability ([3]; first compound 0.4 µM) of 0.372, a relative viability ([3]; first compound 1.265 µM) of 0.348 and a relative viability ([3]; first compound 4 µM) of 0.361. The relative viability ([5]; first compound 0.04 µM) was 0.721, the relative viability ([5]; first compound 0.1265 µM) was 0.794 and the relative viability ([5]; first compound 0.4 µM) was 1.03. The relative viability ([5]; first compound 1.265 µM) was 0.793, the relative viability ([5]; first compound 4 µM) was 0.455 and the relative viability ([6]; first compound 0.04 µM) was 0.533. For the same compound, the relative viability ([6]; first compound 0.1265 µM) was 0.387, the relative viability ([6]; first compound 0.4 µM) was 0.565 and the relative viability ([6]; first compound 1.265 µM) was 0.507. For the same compound, the relative viability ([6]; first compound 4 µM) was 0.433, the relative viability ([7]; first compound 0.04 µM) was 0.778 and the relative viability ([7]; first compound 0.1265 µM) was 0.713. It also gave a relative viability ([7]; first compound 0.4 µM) of 0.701, a relative viability ([7]; first compound 1.265 µM) of 0.492 and a relative viability ([7]; first compound 4 µM) of 0.438. It also gave a relative viability ([10]; first compound 0.04 µM) of 0.111, a relative viability ([10]; first compound 0.1265 µM) of 0.13 and a relative viability ([10]; first compound 0.4 µM) of 0.155. For the same compound, the relative viability ([10]; first compound 1.265 µM) was 0.108, the relative viability ([10]; first compound 4 µM) was 0.118 and the relative viability ([9]; first compound 0.04 µM) was 1.32. It also gave a relative viability ([9]; first compound 0.1265 µM) of 0.924, a relative viability ([9]; first compound 0.4 µM) of 0.978 and a relative viability ([9]; first compound 1.265 µM) of 0.512. For the same compound, the relative viability ([9]; first compound 4 µM) was 0.742.
